Test results taken from the NIST ThermoML archive (doi:10.1016/j.jct.2015.08.031).
Where “and” joins values, the source holds several entries; their conditions need not be identical. Equal entries are not always repeated.

Experiment: molar heat capacity at constant pressure
Conditions: 101.33 kPa, Crystal, relaxation calorimetry

O[C@H]1[C@H](O)[C@H](O)OC[C@H]1O [β-D-arabinopyranose]
Conditions | molar heat capacity at constant pressure
0.5 K | 0.0007532 J/K/mol
1 K | 0.00191 J/K/mol
1.5 K | 0.0039 J/K/mol
1.93 K | 0.00664 J/K/mol
2 K | 0.007206 J/K/mol
2.03 K | 0.00744 J/K/mol
2.14 K | 0.00853 J/K/mol
2.26 K | 0.00959 J/K/mol
2.38 K | 0.01108 J/K/mol
2.5 K | 0.01239 J/K/mol
2.51 K | 0.01247 J/K/mol
2.64 K | 0.01457 J/K/mol
2.78 K | 0.01653 J/K/mol
2.94 K | 0.01919 J/K/mol
3 K | 0.02013 J/K/mol
3.1 K | 0.02195 J/K/mol
3.27 K | 0.02605 J/K/mol
3.43 K | 0.02956 J/K/mol
3.5 K | 0.03122 J/K/mol
3.63 K | 0.03481 J/K/mol
3.81 K | 0.03999 J/K/mol
4 K | 0.04664 J/K/mol
4.03 K | 0.04762 J/K/mol
4.23 K | 0.05477 J/K/mol
4.47 K | 0.06546 J/K/mol
4.5 K | 0.06755 J/K/mol
4.7 K | 0.07779 J/K/mol
4.96 K | 0.09273 J/K/mol
5 K | 0.09528 J/K/mol
5.22 K | 0.109 J/K/mol
5.5 K | 0.1311 J/K/mol and 0.1314 J/K/mol
5.79 K | 0.157 J/K/mol
6 K | 0.1776 J/K/mol
6.1 K | 0.19 J/K/mol
6.42 K | 0.2256 J/K/mol
6.5 K | 0.2359 J/K/mol
6.77 K | 0.2719 J/K/mol
7 K | 0.308 J/K/mol
7.12 K | 0.328 J/K/mol
7.5 K | 0.396 J/K/mol
7.51 K | 0.3961 J/K/mol
7.9 K | 0.4794 J/K/mol
8 K | 0.5015 J/K/mol
8.33 K | 0.5808 J/K/mol
8.5 K | 0.6256 J/K/mol
8.76 K | 0.6949 J/K/mol
9 K | 0.7669 J/K/mol
9.24 K | 0.8445 J/K/mol
9.5 K | 0.9266 J/K/mol
9.72 K | 1.004 J/K/mol
10 K | 1.105 J/K/mol
10.23 K | 1.191 J/K/mol
10.77 K | 1.405 J/K/mol
11 K | 1.517 J/K/mol
11.32 K | 1.667 J/K/mol
11.92 K | 1.965 J/K/mol
12 K | 2 J/K/mol
12.56 K | 2.311 J/K/mol
13 K | 2.549 J/K/mol
13.23 K | 2.685 J/K/mol
13.94 K | 3.128 J/K/mol
14 K | 3.158 J/K/mol
14.68 K | 3.61 J/K/mol
15 K | 3.821 J/K/mol
15.46 K | 4.149 J/K/mol
16 K | 4.53 J/K/mol
16.31 K | 4.747 J/K/mol
17 K | 5.279 J/K/mol
17.15 K | 5.4 J/K/mol
18 K | 6.059 J/K/mol
18.08 K | 6.128 J/K/mol
19 K | 6.866 J/K/mol
19.05 K | 6.89 J/K/mol
20 K | 7.693 J/K/mol
20.08 K | 7.769 J/K/mol
21.14 K | 8.663 J/K/mol
22.3 K | 9.532 J/K/mol
23.47 K | 10.62 J/K/mol
24.74 K | 11.68 J/K/mol
25 K | 11.98 J/K/mol
26.04 K | 12.89 J/K/mol
27.46 K | 14.03 J/K/mol
28.89 K | 15.45 J/K/mol
30 K | 16.33 J/K/mol
30.43 K | 16.8 J/K/mol
32.08 K | 18.29 J/K/mol
33.81 K | 19.73 J/K/mol
35 K | 20.68 J/K/mol
35.6 K | 21.31 J/K/mol
37.52 K | 22.92 J/K/mol
39.51 K | 24.55 J/K/mol
40 K | 25.02 J/K/mol
41.64 K | 26.31 J/K/mol
43.83 K | 28.17 J/K/mol
45 K | 29.23 J/K/mol
46.19 K | 30 J/K/mol
48.63 K | 31.87 J/K/mol
50 K | 33.14 J/K/mol
51.26 K | 34.52 J/K/mol
53.96 K | 35.9 J/K/mol
55 K | 36.8 J/K/mol
56.88 K | 38.09 J/K/mol
59.89 K | 40.36 J/K/mol
60 K | 40.35 J/K/mol
63.13 K | 42.59 J/K/mol
65 K | 43.88 J/K/mol
66.46 K | 45.03 J/K/mol
70 K | 47.36 J/K/mol
70.07 K | 47.59 J/K/mol
73.76 K | 50.07 J/K/mol
75 K | 50.8 J/K/mol
77.78 K | 52.92 J/K/mol
80 K | 54.2 J/K/mol
81.9 K | 55.02 J/K/mol
85 K | 57.56 J/K/mol
86.34 K | 58.01 J/K/mol
90 K | 60.88 J/K/mol
90.84 K | 61.56 J/K/mol
95 K | 64.18 J/K/mol
95.82 K | 64.72 J/K/mol
100 K | 67.44 J/K/mol
100.82 K | 67.63 J/K/mol
105.87 K | 71.22 J/K/mol
110 K | 73.87 J/K/mol
110.95 K | 74.61 J/K/mol
116.03 K | 77.25 J/K/mol
120 K | 80.2 J/K/mol
121.05 K | 81.12 J/K/mol
126.07 K | 84.2 J/K/mol
130 K | 86.45 J/K/mol
131.11 K | 87.48 J/K/mol
136.18 K | 90.66 J/K/mol
140 K | 92.63 J/K/mol
141.2 K | 93.47 J/K/mol
146.26 K | 96.4 J/K/mol
150 K | 98.75 J/K/mol
151.33 K | 99.46 J/K/mol
156.34 K | 102.71 J/K/mol
160 K | 104.83 J/K/mol
161.42 K | 105.84 J/K/mol
166.44 K | 108.82 J/K/mol
170 K | 110.86 J/K/mol
171.52 K | 111.71 J/K/mol
176.58 K | 114.66 J/K/mol
180 K | 116.86 J/K/mol
181.62 K | 117.85 J/K/mol
186.66 K | 121.01 J/K/mol
190 K | 122.82 J/K/mol
191.69 K | 123.97 J/K/mol
196.75 K | 126.57 J/K/mol
200 K | 128.77 J/K/mol
201.79 K | 129.39 J/K/mol
206.8 K | 132.11 J/K/mol
210 K | 134.69 J/K/mol
211.88 K | 135.86 J/K/mol
216.86 K | 138.45 J/K/mol
220 K | 140.59 J/K/mol
221.99 K | 141.54 J/K/mol
226.98 K | 144.9 J/K/mol
230 K | 146.48 J/K/mol
232.03 K | 147.66 J/K/mol
237.15 K | 150.47 J/K/mol
240 K | 152.35 J/K/mol
242.11 K | 153.65 J/K/mol
247.24 K | 156.9 J/K/mol
250 K | 158.21 J/K/mol
252.28 K | 159.78 J/K/mol
257.34 K | 162.75 J/K/mol
260 K | 164.06 J/K/mol
262.36 K | 165.45 J/K/mol
267.38 K | 168.46 J/K/mol
270 K | 169.9 J/K/mol
272.39 K | 171.4 J/K/mol
273.15 K | 171.74 J/K/mol
277.53 K | 174.86 J/K/mol
280 K | 175.73 J/K/mol
282.55 K | 177.62 J/K/mol
287.61 K | 180.21 J/K/mol
290 K | 181.55 J/K/mol
292.62 K | 182.92 J/K/mol
297.64 K | 185.3 J/K/mol
298.15 K | 186.29 J/K/mol
300 K | 187.36 J/K/mol
302.65 K | 188.73 J/K/mol
